Reference: patent publication US9884818B2, “Sulphamoylpyrrolamide derivatives and the use thereof as medicaments for the treatment of hepatitis B” (Janssen Sciences Ireland UC, priority 2013, dated 2018)

Assays:
[1] = test system: HBV; assay: Anti-HBV activity, HepG2.2.15 stable transfected cell line, HBV DNA from secreted virions by realtime PCR; type: cell-based; conditions: Hepatitis B virus, HepG2.2.15, 144 h, HepG2.2.15 cells, 6 days of treatment, HBV DNA from secreted virions; read-out: HepG2 2.15 EC50
[2] = test system: HBV; assay: Anti-HBV activity, HepG2.117 inducibly HBV producing cell line (Tet-off), intracellular HBV DNA by realtime PCR; type: cell-based; conditions: Hepatitis B virus, HepG2.117, 72 h, HepG2.117 cells, 3 days of treatment, intracellular HBV DNA; read-out: HepG2 117 EC50
[3] = Cytotoxicity in HepG2 cells, Resazurin viability assay; conditions: human, HepG2 cells, HepG2 4 days CC50 (μM), incubated for 4 days, Resazurin assay

`COCc1c(S(=O)(=O)N[C@H](C)C(F)(F)F)c(F)c(C(=O)Nc2ccc(F)c(C#N)c2)n1C` [Compound 309, N-(3-cyano-4-fluoro-phenyl)-3-fluoro-5-(methoxymethyl)-1-methyl-4-[[(1R)-2,2,2-trifluoro-1-methyl-ethyl]sulfamoyl]pyrrole-2-carboxamide] gave an EC50 [1] of 530 nM, an EC50 [2] of 320 nM and a CC50 at 4 days [3] greater than 25 µM.
`Cn1cc(S(=O)(=O)NC23CC(C2)C3)cc1C(=O)Nc1cc(F)c(F)c(Cl)c1` [Compound 167, 4-(Bicyclo[1.1.1]pent-1-ylsulfamoyl)-N-(3-chloro-4,5-difluorophenyl)-1-methyl-1H-pyrrole-2-carboxamide] showed an EC50 [1] of 120 nM, an EC50 [2] of 310 nM and a CC50 at 4 days [3] greater than 25 µM.
`Cc1cc(NC(=O)c2cc(S(=O)(=O)NC3(C)COC3)cn2C)cc(C(F)(F)F)c1F` [Compound 79, N-[4-Fluoro-3-methyl-5-(trifluoromethyl)phenyl]-1-methyl-4-[(3-methyloxetan-3-yl)sulfamoyl]-1H-pyrrole-2-carboxamide] gave an EC50 [1] of 530 nM, an EC50 [2] of 460 nM and a CC50 at 4 days [3] greater than 25 µM.
Work on `Cc1c(S(=O)(=O)N[C@H](C)C(F)(F)F)cc(C(=O)Nc2ccc(F)c(Cl)c2)n1C` [Compound 138, N-(3-Chloro-4-fluorophenyl)-1,5-dimethyl-4-{[(1R)-2,2,2-trifluoro-1-methylethyl]sulfamoyl}-1H-pyrrole-2-carboxamide] yielded an EC50 [1] of 100 nM, an EC50 [2] of 30 nM and a CC50 at 4 days [3] greater than 25 µM.
`Cn1cc(S(=O)(=O)NC2(C)COC2)cc1C(=O)Nc1cc(F)c(F)c(Br)c1` [Compound 48, N-(3-bromo-4,5-difluoro-phenyl)-1-methyl-4-[(3-methyloxetan-3-yl)-sulfamoyl]pyrrole-2-carboxamide] showed an EC50 [1] of 50 nM, an EC50 [2] of 60 nM and a CC50 at 4 days [3] greater than 25 µM.
With `Cn1cc(S(=O)(=O)NCC(F)(F)F)cc1C(=O)Nc1ccc(F)c(C#N)c1` [Compound 134, N-(3-Cyano-4-fluorophenyl)-1-methyl-4-[(2,2,2-trifluoroethyl)sulfamoyl]-1H-pyrrole-2-carboxamide] the EC50 [1] was 180 nM, the EC50 [2] was 130 nM and the CC50 at 4 days [3] was greater than 25 µM.
Molecule `Cn1cc(S(=O)(=O)NC2(C)COC2)cc1C(=O)Nc1ccc(F)c(Br)c1` [Compound 81] has an EC50 [1] of 10 nM, an EC50 [2] of 50 nM and a CC50 at 4 days [3] greater than 25 µM.
With `Cn1cc(S(=O)(=O)NC2(C)COC2)cc1C(=O)Nc1cccc(C(F)(F)F)c1` [Compound 28, 1-methyl-4-[(3-methyloxetan-3-yl)sulfamoyl]-N-[3-(trifluoromethyl)-phenyl]pyrrole-2-carboxamide] the EC50 [1] was 100 nM, the EC50 [2] was 140 nM and the CC50 at 4 days [3] was greater than 25 µM.
Work on `CC(CC(F)(F)F)NS(=O)(=O)c1cc(C(=O)Nc2ccc(F)c(C#N)c2)n(C)c1` (stereo not drawn) [Compound 238, N-(3-Cyano-4-fluorophenyl)-1-methyl-4-[(3,3,3-trifluoro-1-methyl-propyl)sulfamoyl]-1H-pyrrole-2-carboxamide] yielded an EC50 [1] of 100 nM, an EC50 [2] of 110 nM and a CC50 at 4 days [3] greater than 25 µM.
`Cn1cc(S(=O)(=O)NC(C)(C)C)c(Cl)c1C(=O)Nc1ccc(F)c(F)c1` [Compound 223, 4-(tert-Butylsulfamoyl)-3-chloro-N-(3,4-difluorophenyl)-1-methyl-1H-pyrrole-2-carboxamide] gave an EC50 [1] of 120 nM, an EC50 [2] of 90 nM and a CC50 at 4 days [3] greater than 25 µM.
`C[C@@H](NS(=O)(=O)c1cc(C(=O)Nc2cccc(Br)c2F)n(C)c1)C(F)(F)F` [Compound 206, N-(3-Bromo-2-fluorophenyl)-1-methyl-4-{[(1R)-2,2,2-trifluoro-1-methylethyl]sulfamoyl}-1H-pyrrole-2-carboxamide] showed an EC50 [1] of 30 nM, an EC50 [2] of 90 nM and a CC50 at 4 days [3] greater than 25 µM.
With `Cc1cc(NC(=O)c2cc(S(=O)(=O)N[C@H](C)CO)cn2C)cc(F)c1F` [Compound 36, N-(3,4-difluoro-5-methyl-phenyl)-4-[[(1R)-2-hydroxy-1-methyl-ethyl]-sulfamoyl]-1-methyl-pyrrole-2-carboxamide] the EC50 [1] was 80 nM, the EC50 [2] was 40 nM and the CC50 at 4 days [3] was greater than 25 µM.
